Laboratory results published in patent US11452727B2, “Combination therapy for treating cancer” (Epizyme, Inc., priority 2017, dated 2022).

How the values were obtained:
Assay in all cases: In vitro combination study with tazemetostat, cell proliferation (Cell Titer Glo)
NCI-H2030 = details: 7 days tazemetostat pre-treatment, 6 days co-treatment with second agent
NCI-H1793 = details: 7 days tazemetostat pre-treatment, 6 days co-treatment with second agent
NCI-H1299 = details: 7 days tazemetostat pre-treatment, 6 days co-treatment with second agent
Method: (§1) Initial proliferation studies were performed to determine the IC50 of tazemetostat in each cell line. For the screen, tazemetostat was used at concentrations bracketed around the IC50 value. If 50% inhibitory concentration was not reached then tazemetostat was tested starting at 10 μM.
(§2) In order to study the effect of dual combination of tazemetostat and a second agent on cell proliferation, cells in log-linear phase growth rate were pre-treated with various concentrations of tazemetostat or DMSO for 7 days in flasks, plated in 384-well plates in the absence of compounds and co-treated on day 8 with tazemetostat or DMSO and the second agent serially diluted for additional 6 days (as depicted in FIG. 1). On day 15, plates were developed for endpoint analysis using Cell Titer Glo to measure ATP content, which was used as an indicator of cell viability. DMSO concentration was kept constant throughout the assay at 0.15% v/v.

NCI-H1993 = details: 7 days tazemetostat pre-treatment, 6 days co-treatment with second agent
NCI-H2122 = details: 7 days tazemetostat pre-treatment, 6 days co-treatment with second agent
NCI-H661 = details: 7 days tazemetostat pre-treatment, 6 days co-treatment with second agent
Method: as §1, §2
(§3) All cell lines were obtained from American Type Culture Collection (ATCC; Rockville, Md.). […] A427, Calu-3, Calu-6 cell lines were cultured in EMEM+10% Fetal bovine serum (FBS)+1% v/v Penicillin/Streptomycin (P/S).

HCC827 = details: 7 days tazemetostat pre-treatment, 6 days co-treatment with second agent
Method: as §1, §2
(§4) NCI-H1573 was cultured in DMEM: F12 Medium containing the following components: 0.02 mg/ml insulin, 0.01 mg/ml transferrin, 25 nM sodium selenite, 50 nM Hydrocortisone, 1 ng/ml Epidermal Growth Factor, 0.01 mM ethanolamine, 0.01 mM phosphorylethanolamine, 100 pM triiodothyronine, 0.5% (w/v) bovine serum albumin, 0.5 mM sodium pyruvate, 4.5 mM L-glutamine and 1% v/v Pen/Strep.

A549 = details: 7 days tazemetostat pre-treatment, 6 days co-treatment with second agent
NCI-H838 = details: 7 days tazemetostat pre-treatment, 6 days co-treatment with second agent
Method: as §1, §2, §4

NCI-H1703 = details: 7 days tazemetostat pre-treatment, 6 days co-treatment with second agent
NCI-H2110 = details: 7 days tazemetostat pre-treatment, 6 days co-treatment with second agent
NCI-H23 = details: 7 days tazemetostat pre-treatment, 6 days co-treatment with second agent
Method: as §1, §2, §3

Calu-6 = details: 7 days tazemetostat pre-treatment, 6 days co-treatment with second agent
Method: as §1, §2

Calu-3 = details: 7 days tazemetostat pre-treatment, 6 days co-treatment with second agent
Method: as §1, §2, §4

A427 = details: A427; 7 days tazemetostat pre-treatment, 6 days co-treatment with second agent
NCI-H1573 = details: 7 days tazemetostat pre-treatment, 6 days co-treatment with second agent
Method: as §1, §2, §4

NCI-H460 = details: 7 days tazemetostat pre-treatment, 6 days co-treatment with second agent
Method: as §1, §2, §3

NCI-H522 = details: 7 days tazemetostat pre-treatment, 6 days co-treatment with second agent
Method: as §1, §2

SMILES | combinatorial effect with tazemetostat (Loewe volume class) (NCI-H2030) | combinatorial effect with tazemetostat (Loewe volume class) (NCI-H1793) | combinatorial effect with tazemetostat (Loewe volume class) (NCI-H1299) | combinatorial effect with tazemetostat (Loewe volume class) (NCI-H1993) | combinatorial effect with tazemetostat (Loewe volume class) (NCI-H2122) | combinatorial effect with tazemetostat (Loewe volume class) (NCI-H661) | combinatorial effect with tazemetostat (Loewe volume class) (HCC827) | combinatorial effect with tazemetostat (Loewe volume class) (A549) | combinatorial effect with tazemetostat (Loewe volume class) (NCI-H838) | combinatorial effect with tazemetostat (Loewe volume class) (NCI-H1703) | combinatorial effect with tazemetostat (Loewe volume class) (NCI-H2110) | combinatorial effect with tazemetostat (Loewe volume class) (NCI-H23) | combinatorial effect with tazemetostat (Loewe volume class) (Calu-6) | combinatorial effect with tazemetostat (Loewe volume class) (Calu-3) | combinatorial effect with tazemetostat (Loewe volume class) (A427) | combinatorial effect with tazemetostat (Loewe volume class) (NCI-H1573) | combinatorial effect with tazemetostat (Loewe volume class) (NCI-H460) | combinatorial effect with tazemetostat (Loewe volume class) (NCI-H522)
CCN1CCN(Cc2ccc(Nc3ncc(F)c(-c4cc(F)c5nc(C)n(C(C)C)c5c4)n3)nc2)CC1 [Abemaciclib, abemaciclib] | Syn. (Loewe volumes greater than 1 denoted “synergy”) | Syn. (Loewe volumes greater than 1 denoted “synergy”) | Anta. (volumes <−1 denoted “antagonism”) | Syn. (Loewe volumes greater than 1 denoted “synergy”) | Anta. (volumes <−1 denoted “antagonism”) | Syn. (Loewe volumes greater than 1 denoted “synergy”) | Add. (A value between −1 and 1 denoted “additivity”) | Add. (A value between −1 and 1 denoted “additivity”) | Add. (A value between −1 and 1 denoted “additivity”) | Add. (A value between −1 and 1 denoted “additivity”) | Add. (A value between −1 and 1 denoted “additivity”) | Add. (A value between −1 and 1 denoted “additivity”) | Syn. (Loewe volumes greater than 1 denoted “synergy”) | Add. (A value between −1 and 1 denoted “additivity”) | Syn. (Loewe volumes greater than 1 denoted “synergy”) | Add. (A value between −1 and 1 denoted “additivity”) | Add. (A value between −1 and 1 denoted “additivity”) | Add. (A value between −1 and 1 denoted “additivity”)
CN(C)C/C=C/C(=O)Nc1cc2c(Nc3ccc(F)c(Cl)c3)ncnc2cc1O[C@H]1CCOC1 [Afatinib, afatinib] | Add. (A value between −1 and 1 denoted “additivity”) | Syn. (Loewe volumes greater than 1 denoted “synergy”) | Add. (A value between −1 and 1 denoted “additivity”) | Add. (A value between −1 and 1 denoted “additivity”) | Add. (A value between −1 and 1 denoted “additivity”) | Add. (A value between −1 and 1 denoted “additivity”) |  | Anta. (volumes <−1 denoted “antagonism”) | Syn. (Loewe volumes greater than 1 denoted “synergy”) | Add. (A value between −1 and 1 denoted “additivity”) | Syn. (Loewe volumes greater than 1 denoted “synergy”) | Add. (A value between −1 and 1 denoted “additivity”) | Add. (A value between −1 and 1 denoted “additivity”) | Syn. (Loewe volumes greater than 1 denoted “synergy”) | Syn. (Loewe volumes greater than 1 denoted “synergy”) | Add. (A value between −1 and 1 denoted “additivity”) | Add. (A value between −1 and 1 denoted “additivity”) | Syn. (Loewe volumes greater than 1 denoted “synergy”)
Nc1cc(C(F)(F)F)c(-c2cc(N3CCOCC3)nc(N3CCOCC3)n2)cn1 [BKM-120] | Add. (A value between −1 and 1 denoted “additivity”) | Syn. (Loewe volumes greater than 1 denoted “synergy”) | Add. (A value between −1 and 1 denoted “additivity”) | Syn. (Loewe volumes greater than 1 denoted “synergy”) | Add. (A value between −1 and 1 denoted “additivity”) | Syn. (Loewe volumes greater than 1 denoted “synergy”) | Add. (A value between −1 and 1 denoted “additivity”) | Add. (A value between −1 and 1 denoted “additivity”) | Syn. (Loewe volumes greater than 1 denoted “synergy”) | Add. (A value between −1 and 1 denoted “additivity”) | Add. (A value between −1 and 1 denoted “additivity”) | Syn. (Loewe volumes greater than 1 denoted “synergy”) | Add. (A value between −1 and 1 denoted “additivity”) | Add. (A value between −1 and 1 denoted “additivity”) | Syn. (Loewe volumes greater than 1 denoted “synergy”) | Add. (A value between −1 and 1 denoted “additivity”) | Add. (A value between −1 and 1 denoted “additivity”) | Add. (A value between −1 and 1 denoted “additivity”)
COc1cc(N2CCC(N3CCN(C)CC3)CC2)ccc1Nc1ncc(Cl)c(Nc2ccccc2P(C)(C)=O)n1 [Brigatinib, brigatinib] | Syn. (Loewe volumes greater than 1 denoted “synergy”) | Syn. (Loewe volumes greater than 1 denoted “synergy”) | Add. (A value between −1 and 1 denoted “additivity”) | Syn. (Loewe volumes greater than 1 denoted “synergy”) | Add. (A value between −1 and 1 denoted “additivity”) | Add. (A value between −1 and 1 denoted “additivity”) |  | Syn. (Loewe volumes greater than 1 denoted “synergy”) | Syn. (Loewe volumes greater than 1 denoted “synergy”) | Syn. (Loewe volumes greater than 1 denoted “synergy”) | Syn. (Loewe volumes greater than 1 denoted “synergy”) | Syn. (Loewe volumes greater than 1 denoted “synergy”) | Add. (A value between −1 and 1 denoted “additivity”) | Syn. (Loewe volumes greater than 1 denoted “synergy”) | Syn. (Loewe volumes greater than 1 denoted “synergy”) | Syn. (Loewe volumes greater than 1 denoted “synergy”) | Syn. (Loewe volumes greater than 1 denoted “synergy”) | Syn. (Loewe volumes greater than 1 denoted “synergy”)
